Here are results for five compounds from doi:10.1101/2023.03.24.534094v2 (biorxiv, 2023).

Among the targets are AAK1 (Homo sapiens, UniProt Q2M2I8); ABL1 (Homo sapiens, UniProt P00519); CK2a2 (Homo sapiens, UniProt P19784); EphA7 (Homo sapiens, UniProt Q15375); PAK4 (Homo sapiens, UniProt O96013); SLK (Homo sapiens, UniProt Q9H2G2).
What all share (experiment): biochemical
For the next assay, the target named is T1, NEK2 (Homo sapiens, UniProt P51955).
T1 sequence (P51955 1-445): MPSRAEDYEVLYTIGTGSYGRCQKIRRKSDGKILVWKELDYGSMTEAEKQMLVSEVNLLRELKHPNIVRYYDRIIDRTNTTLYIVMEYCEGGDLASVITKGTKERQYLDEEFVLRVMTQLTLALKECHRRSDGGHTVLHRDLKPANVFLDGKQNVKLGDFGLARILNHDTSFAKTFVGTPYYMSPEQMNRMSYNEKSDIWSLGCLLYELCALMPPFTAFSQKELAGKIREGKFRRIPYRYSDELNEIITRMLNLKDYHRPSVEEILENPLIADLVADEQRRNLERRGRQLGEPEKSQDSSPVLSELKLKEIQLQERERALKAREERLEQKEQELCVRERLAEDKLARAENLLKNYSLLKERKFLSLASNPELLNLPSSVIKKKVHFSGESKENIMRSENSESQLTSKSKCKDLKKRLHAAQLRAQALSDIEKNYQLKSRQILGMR

In another assay the target is T2, TTK (Homo sapiens, UniProt P33981).
T2 sequence (P33981 1-857): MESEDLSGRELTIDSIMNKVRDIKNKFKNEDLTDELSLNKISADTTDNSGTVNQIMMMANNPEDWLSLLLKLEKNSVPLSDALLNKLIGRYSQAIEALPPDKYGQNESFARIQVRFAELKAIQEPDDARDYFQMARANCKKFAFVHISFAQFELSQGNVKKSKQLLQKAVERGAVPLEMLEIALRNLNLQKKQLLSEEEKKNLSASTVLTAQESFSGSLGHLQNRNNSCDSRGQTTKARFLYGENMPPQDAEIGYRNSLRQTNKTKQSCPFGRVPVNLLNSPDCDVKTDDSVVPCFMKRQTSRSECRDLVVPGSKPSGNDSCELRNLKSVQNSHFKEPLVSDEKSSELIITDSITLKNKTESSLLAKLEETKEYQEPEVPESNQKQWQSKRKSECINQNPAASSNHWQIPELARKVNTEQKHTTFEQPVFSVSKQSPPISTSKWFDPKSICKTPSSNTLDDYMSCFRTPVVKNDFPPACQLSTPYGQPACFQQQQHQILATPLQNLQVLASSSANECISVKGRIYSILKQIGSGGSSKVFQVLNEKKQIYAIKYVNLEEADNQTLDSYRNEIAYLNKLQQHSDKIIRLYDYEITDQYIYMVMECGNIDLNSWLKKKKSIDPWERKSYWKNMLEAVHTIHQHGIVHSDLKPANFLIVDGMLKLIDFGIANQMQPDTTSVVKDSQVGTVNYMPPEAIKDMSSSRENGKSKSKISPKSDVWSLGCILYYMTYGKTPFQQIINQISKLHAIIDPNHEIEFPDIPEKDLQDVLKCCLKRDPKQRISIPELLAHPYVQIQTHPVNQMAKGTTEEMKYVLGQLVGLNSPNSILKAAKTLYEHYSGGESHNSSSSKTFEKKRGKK

The next assay deals with T3, ULK3 (Homo sapiens, UniProt Q6PHR2).
T3 sequence (Q6PHR2 1-472): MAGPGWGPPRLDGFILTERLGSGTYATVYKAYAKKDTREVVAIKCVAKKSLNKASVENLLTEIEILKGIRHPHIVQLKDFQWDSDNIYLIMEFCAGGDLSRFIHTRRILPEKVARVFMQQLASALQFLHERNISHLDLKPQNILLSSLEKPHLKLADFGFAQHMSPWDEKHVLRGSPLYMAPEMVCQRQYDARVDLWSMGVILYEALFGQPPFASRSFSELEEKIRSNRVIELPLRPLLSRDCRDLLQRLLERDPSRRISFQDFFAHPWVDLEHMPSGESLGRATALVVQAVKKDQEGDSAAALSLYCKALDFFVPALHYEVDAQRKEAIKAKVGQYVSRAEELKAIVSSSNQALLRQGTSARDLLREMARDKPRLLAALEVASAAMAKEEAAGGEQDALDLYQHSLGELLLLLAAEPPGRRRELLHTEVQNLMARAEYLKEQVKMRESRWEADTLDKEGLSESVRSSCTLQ

Structures are written as SMILES. Where two headings read alike, the source gives them in different places.

EphA7, sequence (Q15375 whole entry): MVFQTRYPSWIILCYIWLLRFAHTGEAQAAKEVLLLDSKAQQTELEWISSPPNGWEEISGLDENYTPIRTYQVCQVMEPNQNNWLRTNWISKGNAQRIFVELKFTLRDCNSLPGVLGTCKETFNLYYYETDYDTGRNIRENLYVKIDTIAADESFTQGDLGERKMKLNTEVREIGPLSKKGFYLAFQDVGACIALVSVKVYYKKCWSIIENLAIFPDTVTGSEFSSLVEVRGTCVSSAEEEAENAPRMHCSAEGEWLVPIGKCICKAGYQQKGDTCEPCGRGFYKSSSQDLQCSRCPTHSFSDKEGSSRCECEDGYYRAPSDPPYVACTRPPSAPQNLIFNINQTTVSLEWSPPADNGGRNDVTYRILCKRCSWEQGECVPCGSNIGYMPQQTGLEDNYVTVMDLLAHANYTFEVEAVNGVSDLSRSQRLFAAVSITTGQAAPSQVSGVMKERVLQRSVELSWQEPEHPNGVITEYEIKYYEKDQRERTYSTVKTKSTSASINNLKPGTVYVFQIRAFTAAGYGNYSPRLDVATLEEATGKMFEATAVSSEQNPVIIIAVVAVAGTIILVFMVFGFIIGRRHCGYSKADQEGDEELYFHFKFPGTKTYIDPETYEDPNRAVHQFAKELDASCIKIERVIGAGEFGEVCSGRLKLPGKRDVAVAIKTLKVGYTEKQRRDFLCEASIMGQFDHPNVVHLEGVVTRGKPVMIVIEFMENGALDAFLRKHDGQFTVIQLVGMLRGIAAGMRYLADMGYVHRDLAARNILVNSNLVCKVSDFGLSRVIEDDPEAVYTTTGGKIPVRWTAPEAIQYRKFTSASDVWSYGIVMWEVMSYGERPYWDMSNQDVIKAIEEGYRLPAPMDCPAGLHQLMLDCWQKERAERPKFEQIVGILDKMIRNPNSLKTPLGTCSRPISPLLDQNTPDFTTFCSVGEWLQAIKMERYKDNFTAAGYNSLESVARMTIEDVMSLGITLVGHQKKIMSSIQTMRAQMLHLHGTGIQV
CK2a2, sequence (P19784 whole entry): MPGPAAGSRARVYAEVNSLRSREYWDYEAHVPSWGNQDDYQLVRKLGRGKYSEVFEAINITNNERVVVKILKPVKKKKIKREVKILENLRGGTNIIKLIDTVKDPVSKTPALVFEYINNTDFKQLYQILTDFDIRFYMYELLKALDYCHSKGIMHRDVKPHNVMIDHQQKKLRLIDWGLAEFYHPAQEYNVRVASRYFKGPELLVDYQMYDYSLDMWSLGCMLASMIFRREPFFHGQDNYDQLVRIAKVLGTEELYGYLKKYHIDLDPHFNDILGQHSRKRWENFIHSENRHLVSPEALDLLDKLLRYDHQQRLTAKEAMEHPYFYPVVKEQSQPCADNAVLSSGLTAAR
SLK, sequence (Q9H2G2 whole entry): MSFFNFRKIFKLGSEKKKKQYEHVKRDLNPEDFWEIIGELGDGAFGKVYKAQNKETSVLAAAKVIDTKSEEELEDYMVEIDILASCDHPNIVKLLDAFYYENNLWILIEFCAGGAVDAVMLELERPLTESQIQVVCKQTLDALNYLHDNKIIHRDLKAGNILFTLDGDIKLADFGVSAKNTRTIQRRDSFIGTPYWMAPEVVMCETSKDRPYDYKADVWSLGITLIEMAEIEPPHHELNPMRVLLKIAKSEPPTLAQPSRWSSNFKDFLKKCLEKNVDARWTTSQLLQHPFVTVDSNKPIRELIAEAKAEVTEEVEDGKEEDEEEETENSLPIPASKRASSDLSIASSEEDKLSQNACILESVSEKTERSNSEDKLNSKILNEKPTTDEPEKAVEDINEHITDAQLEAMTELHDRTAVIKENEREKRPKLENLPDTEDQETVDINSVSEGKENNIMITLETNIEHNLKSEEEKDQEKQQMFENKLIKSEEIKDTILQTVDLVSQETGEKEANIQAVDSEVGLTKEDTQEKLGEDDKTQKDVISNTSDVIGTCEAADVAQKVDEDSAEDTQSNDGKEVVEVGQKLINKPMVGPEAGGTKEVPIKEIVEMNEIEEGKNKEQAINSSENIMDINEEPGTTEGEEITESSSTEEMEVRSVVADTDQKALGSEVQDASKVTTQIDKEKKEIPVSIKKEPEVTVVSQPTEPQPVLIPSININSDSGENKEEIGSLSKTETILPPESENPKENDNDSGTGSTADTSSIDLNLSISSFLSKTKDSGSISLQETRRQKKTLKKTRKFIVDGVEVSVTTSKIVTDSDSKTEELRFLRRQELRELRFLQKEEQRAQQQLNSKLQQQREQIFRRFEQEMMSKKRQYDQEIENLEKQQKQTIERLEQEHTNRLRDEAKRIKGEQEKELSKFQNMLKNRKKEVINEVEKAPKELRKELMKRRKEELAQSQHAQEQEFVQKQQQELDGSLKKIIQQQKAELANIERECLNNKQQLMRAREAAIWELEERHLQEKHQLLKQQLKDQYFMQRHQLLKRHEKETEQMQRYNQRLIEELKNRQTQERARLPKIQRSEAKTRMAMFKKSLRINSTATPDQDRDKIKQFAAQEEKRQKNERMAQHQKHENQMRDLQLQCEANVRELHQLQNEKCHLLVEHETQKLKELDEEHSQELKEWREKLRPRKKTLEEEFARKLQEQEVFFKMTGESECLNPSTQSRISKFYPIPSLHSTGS
ABL1, sequence (P00519 whole entry): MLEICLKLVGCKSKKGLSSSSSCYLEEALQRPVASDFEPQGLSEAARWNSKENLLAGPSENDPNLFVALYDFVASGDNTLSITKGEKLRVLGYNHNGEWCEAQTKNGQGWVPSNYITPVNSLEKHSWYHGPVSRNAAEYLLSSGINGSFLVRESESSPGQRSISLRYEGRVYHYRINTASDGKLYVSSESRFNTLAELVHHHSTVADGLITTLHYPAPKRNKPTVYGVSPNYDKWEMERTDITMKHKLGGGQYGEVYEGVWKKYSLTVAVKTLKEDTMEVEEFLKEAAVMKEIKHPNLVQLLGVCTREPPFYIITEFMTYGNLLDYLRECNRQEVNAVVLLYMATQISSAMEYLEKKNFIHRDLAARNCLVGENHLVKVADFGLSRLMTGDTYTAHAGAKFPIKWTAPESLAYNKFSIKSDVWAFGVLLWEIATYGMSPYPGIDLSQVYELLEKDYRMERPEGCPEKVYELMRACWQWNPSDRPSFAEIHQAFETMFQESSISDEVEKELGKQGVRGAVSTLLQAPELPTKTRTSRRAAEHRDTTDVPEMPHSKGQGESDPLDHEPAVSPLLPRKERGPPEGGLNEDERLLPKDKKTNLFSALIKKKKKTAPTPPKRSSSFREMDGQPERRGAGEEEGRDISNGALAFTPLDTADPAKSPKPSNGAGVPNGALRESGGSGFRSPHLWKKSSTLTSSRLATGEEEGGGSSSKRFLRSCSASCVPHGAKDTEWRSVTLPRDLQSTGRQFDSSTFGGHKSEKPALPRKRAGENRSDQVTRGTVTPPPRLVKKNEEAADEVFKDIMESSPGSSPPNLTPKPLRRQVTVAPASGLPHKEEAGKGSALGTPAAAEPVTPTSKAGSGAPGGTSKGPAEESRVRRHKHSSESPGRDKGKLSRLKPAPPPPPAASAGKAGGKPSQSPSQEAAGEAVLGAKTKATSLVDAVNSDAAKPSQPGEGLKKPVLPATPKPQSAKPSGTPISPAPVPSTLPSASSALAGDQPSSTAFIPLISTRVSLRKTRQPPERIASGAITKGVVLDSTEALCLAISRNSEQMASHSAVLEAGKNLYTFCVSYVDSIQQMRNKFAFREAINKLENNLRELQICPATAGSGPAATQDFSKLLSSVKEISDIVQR
PAK4, sequence (O96013 whole entry): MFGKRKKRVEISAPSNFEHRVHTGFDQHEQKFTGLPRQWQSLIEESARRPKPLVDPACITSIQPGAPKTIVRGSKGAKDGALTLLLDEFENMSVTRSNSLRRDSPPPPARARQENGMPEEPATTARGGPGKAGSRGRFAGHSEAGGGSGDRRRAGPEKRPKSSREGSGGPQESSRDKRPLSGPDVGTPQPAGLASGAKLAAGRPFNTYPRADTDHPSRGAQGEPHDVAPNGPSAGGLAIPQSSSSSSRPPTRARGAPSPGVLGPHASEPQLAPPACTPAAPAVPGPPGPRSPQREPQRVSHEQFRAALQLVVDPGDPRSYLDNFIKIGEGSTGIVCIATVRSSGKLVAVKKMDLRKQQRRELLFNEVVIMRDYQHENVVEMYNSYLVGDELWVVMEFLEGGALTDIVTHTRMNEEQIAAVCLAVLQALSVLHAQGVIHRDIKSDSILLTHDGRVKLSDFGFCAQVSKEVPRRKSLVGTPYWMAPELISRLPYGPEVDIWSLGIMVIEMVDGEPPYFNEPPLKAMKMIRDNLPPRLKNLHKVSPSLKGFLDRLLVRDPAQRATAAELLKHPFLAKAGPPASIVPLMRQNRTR

Consider `CNc1ncc2cc(-c3ccccc3Cl)c(=O)n(CCCCN)c2n1` [compound 4, 8-(4-Aminobutyl)-6-(2-chlorophenyl)-2-(methylamino)pyrido[2,3-d]pyrimidin-7(8H)-one], for which the ΔTm at 10 µM on AAK1 (read-out: dTm MR21 (4)) was 1.6 °C; at ABL1 (read-out: dTm MR21 (4)) it was 9.2 °C; on CK2a2 (read-out: dTm MR21 (4)) it was -0.3 °C; at EphA7 (read-out: dTm MR21 (4)), 1.8 °C; on NEK2 (read-out: dTm MR21 (4)), 0.5 °C; at PAK4 (read-out: dTm MR21 (4)), 2.8 °C. The figures for the ΔTm at 10 µM on SLK (read-out: dTm MR21 (4)), on TTK (read-out: dTm MR21 (4)) and on ULK3 (read-out: dTm MR21 (4)) were 1.6 °C, 0.9 °C and 2.4 °C, respectively.

Turning to `CNc1ncc2cc(-c3cc(Br)ccc3Cl)c(=O)n(CCCCN)c2n1` [compound 6, 8-(4-Aminobutyl)-6-(5-bromo-2-chlorophenyl)-2-(methylamino)pyrido[2,3-d]pyrimidin-7(8H)-one], the ΔTm at 10 µM on AAK1 (read-out: dTm 6) was 0.7 °C; on ABL1 (read-out: dTm 6), 4.5 °C; at CK2a2 (read-out: dTm 6), -0.1 °C; on EphA7 (read-out: dTm 6) it was 2.7 °C; at NEK2 (read-out: dTm 6) it was 2 °C; on PAK4 (read-out: dTm 6), 1.1 °C. On TTK (read-out: dTm 6), the ΔTm at 10 µM amounted to 0.2 °C.

In the case of `CNc1ncc2cc(-c3ccc(-c4cccc(C)n4)cc3Cl)c(=O)n(CC3OCC(N)CO3)c2n1` (centres unmarked) [compound 2, G-5555], the “dTm G-5555 (2)” value at AAK1 (10 µM, binder) is 0.6 °C; at ABL1 (10 µM, binder), 5.1 °C; on CK2a2 (10 µM, binder), -0.6 °C; on EphA7 (10 µM, binder), 4.1 °C; at PAK4 (10 µM, binder), 3.5 °C; on SLK (10 µM, binder), 7.2 °C. The “dTm G-5555 (2)” value at TTK (10 µM, binder) stood at 1.5 °C; at ULK3 (10 µM, binder), 8.0 °C.

On to `CNc1ncc2cc(-c3cc(F)ccc3F)c(=O)n(CCCCN)c2n1` [compound 5, 8-(4-Aminobutyl)-6-(2,5-difluorophenyl)-2-(methylamino)pyrido[2,3-d]pyrimidin-7(8H)-one], for which the ΔTm at 10 µM on AAK1 (read-out: dTm MR22 (5)) was 0.4 °C; at ABL1 (read-out: dTm MR22 (5)), 6.9 °C; at CK2a2 (read-out: dTm MR22 (5)), -1 °C; on EphA7 (read-out: dTm MR22 (5)), -1.6 °C; at NEK2 (read-out: dTm MR22 (5)), 1 °C; at PAK4 (read-out: dTm MR22 (5)) it was 0.2 °C. Also, the ΔTm at 10 µM at SLK (read-out: dTm MR22 (5)) is -0.6 °C; on TTK (read-out: dTm MR22 (5)), -2.6 °C; on ULK3 (read-out: dTm MR22 (5)), 1.9 °C.

As for `CNc1ncc2cc(-c3cc(Br)ccc3Cl)c(=O)n(C[C@H]3OC[C@H](N)CO3)c2n1` [compound 7, 8-(((2r,5r)-5-Amino-1,3-dioxan-2-yl)methyl)-6-(5-bromo-2-chlorophenyl)-2-(methylamino)pyrido[2,3-d]pyrimidin-7(8H)-one], the ΔTm at 10 µM at AAK1 (read-out: dTm 7) was 0.5 °C; at ABL1 (read-out: dTm 7) it was 4.1 °C; on CK2a2 (read-out: dTm 7), 0.1 °C; on EphA7 (read-out: dTm 7), -0.5 °C; at NEK2 (read-out: dTm 7), 2.1 °C; on PAK4 (read-out: dTm 7), 0.5 °C. Moreover, the ΔTm at 10 µM at TTK (read-out: dTm 7) was -0.2 °C; at ULK3 (read-out: dTm 7) it was 0.6 °C.
